“Also recorded” adds a separate entry of the source.
How the values were obtained:
[1] = tested on: alpha-secretase; assay: alpha-secretase activity in SHSY-5Y neuroblastoma cells (FIG. 10); format: cell-based; conditions: 10−9 M, versus Bryostatin-1
Description: Purified Bryoids at 10−^9 M are shown to increase alpha-secretase activity in SHSY-5Y neuroblastoma cells in FIG. 10.

[2] = Biodistribution of radio-labeled Bryostatin-1 by different administration routes; format: in vivo, mouse
Description: It is worth mentioning that oil formulations were used for […] and intraperitoneal studies. Aqueous formulations were used for intravenous administration and PET formulation for intranasal administration.

[3] = Solubility of Bryostatin-1 in solvents and oils by normal phase HPLC; format: physicochemical; conditions: for Concentration: theoretical 2.5 mg/100 mL
Description: Based on the hydrophobicity of Bryostatin-1, we developed an oil-based formulation of Bryostatin-1. […] Isopropyl alcohol, Extra Virgin olive oil, sesame oil, and vegetable oil were all used as solvents. Thirty microliters of the stock solution were placed in each of 4 clean, dry HPLC vials. The ethanol was allowed to evaporate, leaving 25 micrograms in the vial. Then, 1.0 mL of the solvent was placed in the vial and vortexed to ensure proper mixing. These samples were then injected on a normal phase HPLC system, with a gradient of 10%-70% isopropyl alcohol in hexane as the mobile phase (specifically developed for this experiment). The concentration of each vial theoretically should be 2.5 mg/100 mL.
The reason for the higher concentrations than the standard (isopropyl alcohol) is due to the baseline. While attempting a baseline subtraction for each oil, there was negative absorbance so the blank IPA sample was subtracted from each sample's baseline. While this incorporates a little more area for integration, the amount of Bryostatin in the oil was quantifiable.

[4] = tested on: B6C3-Tg (APPswe, PSEN1 dE9) 85Dbo/J mice; assay: Morris water maze in APP/PS1 Alzheimer's disease mice; format: in vivo, mouse
Description: Mouse strain B6C3-Tg carrying mutant Swedish Amyloid precursor protein (sweAPP) and PS I (presenilin-1) genes associated with early onset Alzheimer's disease were subjected to water maze tests at 5-6 months of age.
In vivo studies were conducted using the Morris water maze to evaluate cognitive impairments and restoration in response to drug treatments. These studies used the mouse strain B6C3-Tg (APPswe, PSEN1 dE9) 85Dbo/J mice (MMRRC, Jackson Labs).

[5] = tested on: TS65DN transgenic mouse model of Down syndrome; assay: Morris water maze in TS65DN mouse model of Down syndrome, intranasal; format: in vivo; conditions: PET formulation
Description: In this model, wild type mice improved over the 4 trials shown as a reduction in latency within the trial.
TS65DN mouse model of Down syndrome were purchased from MMRRC/Jackson Labs at 20-24 weeks of age and maintained in the LSUHSC-S vivarium. Segmentally trisomic Ts65Dn mice provide a postnatal model for Down syndrome.

[6] = tested on: SK-HEP1 liver cells; assay: Metabolism by SK-HEP1 liver cells; format: in vitro ADME; conditions: within 24 h
[7] = over 72 h following intranasal administration

In the case of CCC/C=C/C=C/C(=O)O[C@H]1[C@H]2C=C3C[C@H]([C@@H](C)O)OC(=O)C[C@H](O)C[C@@H]4C[C@H](OC(C)=O)C(C)(C)[C@](O)(C[C@@H]5C/C(=C\C(=O)OC)C[C@H](/C=C/C(C)(C)[C@]1(OC(=O)C2)O3)O5)O4 [Bryoid B3, Bryostatin-3], the alpha-secretase activity [1] was “improve the production of alpha-secretase over Bryostatin-1”.

With CCC/C=C/C=C/C(=O)O[C@H]1/C(=C/C(=O)OC)C[C@H]2C[C@H]([C@@H](C)O)OC(=O)C[C@H](O)C[C@@H]3C[C@H](OC(C)=O)C(C)(C)[C@](O)(C[C@@H]4C/C(=C/C(=O)OC)C[C@H](/C=C/C(C)(C)[C@]1(O)O2)O4)O3 [Bryostatin-1] the “tissue distribution of 3H-labeled tracer” value ([2]; 8 h following intranasal administration, normalized to CPM/g) was “most abundant in hippocampus, large intestine and urine”, the “tissue distribution of 3H-labeled tracer” value ([2]; 12 h following intranasal administration) was “most abundant in hippocampus and urine” and the “tissue distribution of 3H-labeled tracer” value ([2]; 24 h following intranasal administration) was “most abundant in hippocampus, urine and feces”. For the same compound, the “tissue distribution of 3H-labeled tracer” value ([2]; 48 h following intranasal administration) was “most abundant in hippocampus and fat tissues”, the “accumulation in different tissues” value ([2]; i.p. dosed group) was “highest tissue accumulations” and the “accumulation in different tissues” value ([2]; i.v. dosed group) was “highest tissue accumulations”. The “accumulation in hippocampus and lung” value ([2]; intranasal delivery, by 4 h) was “relative high levels of Bryostatin-1 accumulation”, the “accumulation in different tissues” value ([2]; oral route (oil formulation)) was “lowest” and the Hippocampal content [2, 7] was “relatively high hippocampal uptake rates were achieved and maintained; also recorded: slow rate of loss over 72 h”. For the same compound, the Lung content [2, 7] was “a peak at 4 h and rapid excretion by 8 h; also recorded: rapid rate of appearance at 4h followed by rapid loss at 8 h”, the Concentration ([3]; Extra Virgin Olive Oil) was 2.9945 mg/100 mL and the Concentration ([3]; Extra Virgin olive with mixed natural tocopherol antioxidants, lecithin and medium chain triglyceride emulsifiers) was 2.4431 mg/100 mL. The Concentration ([3]; Isopropyl Alcohol (standard)) was 2.6035 mg/100 mL, the Concentration ([3]; Vegetable Oil) was 2.5475 mg/100 mL and the solubility in oils ([3]; variety of oils) was “soluble in a variety of different types of oil; also recorded: soluble in a variety of oils, with the best results in Extra Virgin Olive Oil, Vegetable Oil, and Extra Virgin Olive Oil with excipients”. The “protection against memory loss in water maze” value ([4]; 5 micrograms/mouse on alternative days orally in oil formulation, APP/PS1 mice 5-6 months of age, versus control animals) was “significant protection against Alzheimer's disease mediated memory loss”, the “responses in water maze” value ([4]; i.p. treated mice) was “did not find that i.p. treated mice showed as good responses” and the “inter-trial water maze performance (latency)” value ([5]; 0.01 μg intranasal) was “did not show this same improvement”. For the same compound, the “inter-trial water maze performance (latency)” value ([5]; 0.1 μg intranasal, p<0.05 compared to vehicle treated Down's mice) was “inter-trial interval improvement”, the “inter-trial water maze performance (latency)” value ([5]; 1 μg intranasal, p<0.001 compared to vehicle treated transgenic Down's mice) was “significant improvement” and the “metabolism by liver cells” value [6] was “not significantly metabolized”.

With bryostatin-3 26-ketone [Bryoid B16] the alpha-secretase activity [1] was “improve the production of alpha-secretase over Bryostatin-1”.

— patent US20220296522A1, “BRYOID COMPOSITIONS, METHODS OF MAKING AND USE THEREOF” (Aphios Corporation, priority 2021, published 2022)
